The record followed here is publication PMC12233266, “Loss of serine/threonine protein phosphatase 6 severely impairs sexual stage development in malaria parasite Plasmodium berghei” (PLOS Pathogens, 2025).

For this test, the target named is T1, Ser/Thr protein phosphatase 6 (PbPP6) (Plasmodium berghei, UniProt A0A509AFY8).
T1 construct: gene PBANKA_0412100; full-length PbPP6 (308 aa), C-terminal His tag, expressed in Pichia GS115 (rPbPP6)
T1 sequence (A0A509AFY8 1-308): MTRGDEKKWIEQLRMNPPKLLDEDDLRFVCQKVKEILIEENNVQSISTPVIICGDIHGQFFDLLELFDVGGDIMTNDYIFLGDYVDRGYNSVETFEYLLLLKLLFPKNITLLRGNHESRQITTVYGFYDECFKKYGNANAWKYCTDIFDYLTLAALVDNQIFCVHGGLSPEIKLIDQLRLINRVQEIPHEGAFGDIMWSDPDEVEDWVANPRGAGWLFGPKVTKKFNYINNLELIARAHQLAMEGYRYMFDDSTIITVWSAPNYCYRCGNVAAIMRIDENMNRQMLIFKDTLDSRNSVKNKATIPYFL
Put plainly: ProFluor Ser/Thr PPase fluorescence assay (R110 substrate) with purified recombinant enzyme, dose-response. The test is classed as biochemical.

In general, IC50 refers to the point on the concentration scale where inhibition reaches its midpoint. As for `C=C1[C@@H](O)[C@@H]2O[C@]3(CC[C@H](/C=C/[C@@H](C)[C@@H]4CC(C)=C[C@@]5(O[C@H](C[C@@](C)(O)C(=O)O)CC[C@H]5O)O4)O3)CC[C@H]2O[C@@H]1[C@@H](O)C[C@H](C)[C@H]1O[C@@]2(CCCCO2)CC[C@H]1C` [OKA, okadaic acid], the IC50 amounted to 0.86 nM.
